Results on 10 compounds are retold here after patent US11034718B2, “C-3 novel triterpenone with C-17 reverse amide derivatives as HIV inhibitors” (HETERO LABS LIMITED, priority 2015, dated 2021).

Common to all, as to format: cell-based
Experiment [1] has as its system HIV-1 pNL4-3 WT. The experiment can be described thus: Antiviral activity against pNL4-3/WT strain in MT4 cells (p24 estimation). The following applies: Human immunodeficiency virus 1, MT4, 96 h, read-out: pNL4-3 WT IC50. The procedure, abridged:
(§1)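 MT4 cells infected with HIV-1 pNL4-3 WT or V7A (defined TCID50, 1.5 h, 37° C), plated at 3×10^4 cells/well with test compound, final DMSO ≤1%. After 4 days' culture, p24 in supernatant aliquots measured by kit.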

For experiment [2], the system named is HIV-1 pNL4-3 V7A. In words: Antiviral activity against pNL4-3/V7A strain in MT4 cells (p24 estimation). The following applies: Human immunodeficiency virus 1, MT4, 96 h, read-out: pNL4-3 V7A IC50. The method, boiled down:
as §1

The subject of experiment [3] is HIV-1 strain 92HT599. In words: Antiviral activity against HIV-1 strain 92HT599 in MT2 cells (p24 estimation). The following applies: HIV-1 92HT599, ~96 hours. The procedure, abridged: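 Percent inhibition versus vehicle controls came from p24 quantified in supernatant aliquots. These were taken after ~96 h incubation of compound (DMSO ≤1%) with MT2 cells infected at 10 TCID50/30,000 cells.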

[4] abbreviates: Human immunodeficiency virus 1, 0% serum binding assay, read-out: IC50 0% serum.
Setting [5] is: Human immunodeficiency virus 1, 40% serum binding assay, read-out: IC50 40% serum.

Read-outs that look alike come from different tables or passages of the source.

In the case of `CC(C)C1=C2[C@H]3CC[C@@H]4[C@@]5(C)CC[C@H](OC(=O)[C@H]6C[C@@H](C(=O)O)C6(C)C)C(C)(C)[C@@H]5CC[C@@]4(C)[C@]3(C)CC[C@@]2(NC(=O)C(C)(C)NC(=O)c2nccn2C)CC1=O` [Example 16, (1R,3S)-3-((((3aR,5aR,5bR,7aR,9S,11aR,11bR,13aS)-1-isopropyl-5a,5b,8,8,11a-pentamethyl-3a-(2-methyl-2-(1-methyl-1H-imidazole-2-carboxamido)propanamido)-2-oxo-3,3a,4,5,5a,5b,6,7,7a,8,9,10,11,11a,11b,12,13,13a-octadecahydro-2H-cyclopenta[a]chrysen-9-yl)oxy)carbonyl)-2,2-dimethylcyclobutane-1-carboxylic acid], the IC50 was 5.01 to 10 nM in experiment [1], above 50 nM in experiment [2], below 3 nM in experiment [3] (setting [4]) and 50 to 200 nM in experiment [3] (setting [5]).
As for `CC(C)C1=C2[C@H]3CC[C@@H]4[C@@]5(C)CC[C@H](OC(=O)[C@H]6C[C@@H](C(=O)O)C6(C)C)C(C)(C)[C@@H]5CC[C@@]4(C)[C@]3(C)CC[C@@]2(NC(=O)C(C)(C)NC(=O)c2ccc3[nH]c(-c4cnccn4)nc3c2)CC1=O` [Example 15, (1R,3S)-3-((((3aR,5aR,5bR,7aR,9S,11aR,11bR,13aS)-1-isopropyl-5a,5b,8,8,11a-pentamethyl-3a-(2-methyl-2-(2-(pyrazin-2-yl)-1H-benzo[d]imidazole-5-carboxamido)propanamido)-2-oxo-3,3a,4,5,5a,5b,6,7,7a,8,9,10,11,11a,11b,12,13,13a-octadecahydro-2H-cyclopenta[a]chrysen-9-yl)oxy)carbonyl)-2,2-dimethylcyclobutane-1-carboxylic acid], the IC50 in experiment [1] is below 5 nM; in experiment [2], above 50 nM; in experiment [3] (setting [4]) it was below 3 nM; in experiment [3] (setting [5]) it was below 50 nM.
For `CC(C)C1=C2[C@H]3CC[C@@H]4[C@@]5(C)CC[C@H](OC(=O)[C@H]6C[C@@H](C(=O)O)C6(C)C)C(C)(C)[C@@H]5CC[C@@]4(C)[C@]3(C)CC[C@@]2(NC(=O)C2(NC(=O)c3ccc(F)cc3)CC2)CC1=O` [Example 39, (1R,3S)-3-((((3aR,5aR,5bR,7aR,9S,11aR,11bR,13aS)-3a-(1-(4-fluorobenzamido)cyclopropane-1-carboxamido)-1-isopropyl-5a,5b,8,8,11a-pentamethyl-2-oxo-3,3a,4,5,5a,5b,6,7,7a,8,9,10,11,11a,11b,12,13,13a-octadecahydro-2H-cyclopenta[a]chrysen-9-yl)oxy)carbonyl)-2,2-dimethylcyclobutane-1-carboxylic acid], the half-inhibitory concentration (IC50) in experiment [1] was 5.01 to 10 nM; in experiment [2], 10 to 50 nM; in experiment [3] (setting [4]) it was below 3 nM; in experiment [3] (setting [5]), below 50 nM.
`CC(C)C1=C2[C@H]3CC[C@@H]4[C@@]5(C)CC[C@H](OC(=O)[C@H]6C[C@@H](C(=O)O)C6(C)C)C(C)(C)[C@@H]5CC[C@@]4(C)[C@]3(C)CC[C@@]2(NC(=O)C(C)(C)NC(=O)c2ccc(CN3CCS(=O)(=O)CC3)cc2)CC1=O` [Example 58, (1R,3S)-3-((((3aR,5aR,5bR,7aR,9S,11aR,11bR,13aS)-3a-(2-(4-((1,1-dioxidothiomorpholino)methyl)benzamido)-2-methylpropanamido)-1-isopropyl-5a,5b, 8,8,11a-pentamethyl-2-oxo-3,3a,4,5,5a,5b,6,7,7a,8,9,10,11,11a,11b,12,13,13a-octalecahydro-2H-cyclopenta[a]chrysen-9-yl)oxy)carbonyl)-2,2-dimethylcyclobutane-1-carboxylic acid]: the half-inhibitory concentration (IC50) was 5.01 to 10 nM in experiment [1], above 50 nM in experiment [2], below 3 nM in experiment [3] (setting [4]) and below 50 nM in experiment [3] (setting [5]).
For `CC(C)C1=C2[C@H]3CC[C@@H]4[C@@]5(C)CC[C@H](OC(=O)[C@H]6C[C@@H](C(=O)O)C6(C)C)C(C)(C)[C@@H]5CC[C@@]4(C)[C@]3(C)CC[C@@]2(NC(=O)C(C)(C)NC(=O)c2ccc(C(F)(F)F)cc2)CC1=O` [Example 25, (1R,3S)-3-((((3aR,5aR,5bR,7aR,9S,11aR,11bR,13aS)-1-isopropyl-5a,5b,8,8,11a-pentamethyl-3a-(2-methyl-2-(4-(trifluoromethyl)benzamido)propan amido)-2-oxo-3,3a,4,5,5a,5b,6,7,7a,8,9,10,11,11a,11b,12,13,13a-octadecahydro-2H-cyclopenta[a]chrysen-9-yl)oxy)carbonyl)-2,2-dimethylcyclobutane-1-carboxylic acid], the IC50 in experiment [1] is below 5 nM; in experiment [2], below 10 nM; in experiment [3] (setting [4]), below 3 nM; in experiment [3] (setting [5]) it was below 50 nM.
On the same counts, the results for `CC(C)C1=C2[C@H]3CC[C@@H]4[C@@]5(C)CC[C@H](OC(=O)[C@H]6C[C@@H](C(=O)O)C6(C)C)C(C)(C)[C@@H]5CC[C@@]4(C)[C@]3(C)CC[C@@]2(NC(=O)C(C)(C)NC(=O)Cc2ccc(Cl)cc2)CC1=O` [Example 53, (1R,3S)-3-((((3aR,5aR,5bR,7aR,9S,11aR,11bR,13aS)-3a-(2-(2-(4-chlorophenyl)acetamido)-2-methylpropanamido)-1-isopropyl-5a,5b,8,8,11a-pentamethyl-2-oxo-3,3a,4,5,5a,5b,6,7,7a,8,9,10,11,11a,11b,12,13,13a-octadecahydro-2H-cyclopenta[a]chrysen-9-yl)oxy)carbonyl)-2,2-dimethylcyclobutane-1-carboxylic acid] are below 5 nM, below 10 nM, below 3 nM and below 50 nM.
On the same counts, the results for `CC(C)C1=C2[C@H]3CC[C@@H]4[C@@]5(C)CC[C@H](OC(=O)[C@H]6C[C@@H](C(=O)O)C6(C)C)C(C)(C)[C@@H]5CC[C@@]4(C)[C@]3(C)CC[C@@]2(NC(=O)C(C)(C)NC(=O)c2cnn3cccnc23)CC1=O` [Example 54, (1R,3S)-3-((((3aR,5aR,5bR,7aR,9S,11aR,11bR,13aS)-1-isopropyl-5a,5b,8,8,11a-pentamethyl-3a-(2-methyl-2-(pyrazolo[1,5-a]pyrimidine-3-carboxamido)propanamido)-2-oxo-3,3a,4,5,5a,5b,6,7,7a,8,9,10,11,11a,11b,12,13,13a-octadecahydro-2H-cyclopenta[a]chrysen-9-yl)oxy)carbonyl)-2,2-dimethylcyclobutane-1-carboxylic acid] are below 5 nM, 10 to 50 nM, below 3 nM and below 50 nM.
On the same counts, the results for `Cc1ccc(C(=O)NC(C)(C)C(=O)N[C@@]23CC[C@]4(C)[C@H](CC[C@@H]5[C@@]6(C)CC[C@H](OC(=O)[C@H]7C[C@@H](C(=O)O)C7(C)C)C(C)(C)[C@@H]6CC[C@]54C)C2=C(C(C)C)C(=O)C3)cn1` [Example 61, (1R,3S)-3-((((3aR,5aR,5bR,7aR,9S,11aR,11bR,13aS)-1-isopropyl-5a,5b,8,8,11a-pentamethyl-3a-(2-methyl-2-(6-methylnicotinamido)propanamido)-2-oxo-3,3a,4,5,5a,5b,6,7,7a,8,9,10,11,11a,11b,12,13,13a-octadecahydro-2H-cyclopenta[a]chrysen-9-yl)oxy)carbonyl)-2,2-dimethylcyclobutane-1-carboxylic acid] are below 5 nM, 10 to 50 nM, below 3 nM and below 50 nM.
Take `CC(C)C1=C2[C@H]3CC[C@@H]4[C@@]5(C)CC[C@H](OC(=O)[C@H]6C[C@@H](C(=O)O)C6(C)C)C(C)(C)[C@@H]5CC[C@@]4(C)[C@]3(C)CC[C@@]2(NC(=O)C(C)(C)NC(=O)c2cc(C(C)C)n[nH]2)CC1=O` [Example 17, (1R,3S)-3-((((3aR,5aR,5bR,7aR,9S,11aR,11bR,13aS)-1-isopropyl-3a-(2-(3-isopropyl-1H-pyrazole-5-carboxamido)-2-methylpropanamido)-5a,5b,8,8,11a-pentamethyl-2-oxo-3,3a,4,5,5a,5b,6,7,7a,8,9,10,11,11a,11b,12,13,13a-octadecahydro-2H-cyclopenta[a]chrysen-9-yl)oxy)carbonyl)-2,2-dimethylcyclobutane-1-carboxylic acid]: the IC50 in experiment [1] is below 5 nM; in experiment [2] it was below 10 nM; in experiment [3] (setting [4]) it was below 3 nM; in experiment [3] (setting [5]), below 50 nM.
On the same counts, the results for `Cc1ccc(C(=O)NC2(C(=O)N[C@@]34CC[C@]5(C)[C@H](CC[C@@H]6[C@@]7(C)CC[C@H](OC(=O)[C@H]8C[C@@H](C(=O)O)C8(C)C)C(C)(C)[C@@H]7CC[C@]65C)C3=C(C(C)C)C(=O)C4)CCCC2)cn1` [Example 47, (1R,3S)-3-((((3aR,5aR,5bR,7aR,9S,11aR,11bR,13aS)-1-isopropyl-5a,5b,8,8,11a-pentamethyl-3a-(1-(6-methylnicotinamido)cyclopentane-1-carboxamido)-2-oxo-3,3a,4,5,5a,5b,6,7,7a,8,9,10,11,11a,11b,12,13,13a-octadecahydro-2H-cyclopenta[a]chrysen-9-yl)oxy)carbonyl)-2,2-dimethylcyclobutane-1-carboxylic acid] are below 5 nM, below 10 nM, below 3 nM and below 50 nM.
